The values that follow come from US20130303509A1, “NAMPT INHIBITORS” (AbbVie Inc., priority 2012, published 2013).

pIC50: −log10 of the molar value.

This test concerns PC3 cells. Put plainly: NAMPT Cell Proliferation Assay. Conditions: Homo sapiens, PC-3, 120 h, 5 days incubation, cell viability by Cell Titer Glo. In kind it is cell-based. In short, it runs like this: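 Five-day CellTiter-Glo viability readout in PC3 cells grown in RPMI/10% heat-inactivated FBS. Compounds added after overnight attachment as a 10-fold dilution series, […]. Percent inhibition fitted to sigmoidal dose-response to derive IC50.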

`O=C(Nc1ccc(OC2CCN(C(=O)c3cccc(C(F)(F)F)c3)CC2)cc1)C1CN(c2ccnnc2)C1` [Example 285, 1-(pyridazin-4-yl)-N-[4-({1-[3-(trifluoromethyl)benzoyl]piperidin-4-yl}oxy)phenyl]azetidine-3-carboxamide] showed a pIC50 of 7.16. As for `O=C(Nc1ccc(OC2CCN(C(=O)c3cccc(F)c3)CC2)cc1)C1CN(c2ccnnc2)C1` [Example 286, N-(4-{[1-(3-fluorobenzoyl)piperidin-4-yl]oxy}phenyl)-1-(pyridazin-4-yl)azetidine-3-carboxamide], the figure is 7.13. As for `O=C(Nc1ccc(OC2CCN(C(=O)c3ccc(C(F)(F)F)cc3)CC2)cc1)C1CN(c2ccnnc2)C1` [Example 287, 1-(pyridazin-4-yl)-N-[4-({1-[4-(trifluoromethyl)benzoyl]piperidin-4-yl}oxy)phenyl]azetidine-3-carboxamide], the figure is 6.92. As for `O=C(Nc1ccc(OC2CCN(C(=O)Cc3cccc(F)c3)CC2)cc1)C1CN(c2ccnnc2)C1` [Example 288, N-[4-({1-[(3-fluorophenyl)acetyl]piperidin-4-yl}oxy)phenyl]-1-(pyridazin-4-yl)azetidine-3-carboxamide], the figure is 7.61; as for `O=C(Nc1ccc(OC2CCN(C(=O)c3ccccc3F)CC2)cc1)C1CN(c2ccnnc2)C1` [Example 289, N-(4-{[1-(2-fluorobenzoyl)piperidin-4-yl]oxy}phenyl)-1-(pyridazin-4-yl)azetidine-3-carboxamide], 7.27. Compound `O=C(Nc1ccc(OC2CCN(C(=O)c3ccc(OC(F)(F)F)cc3)CC2)cc1)C1CN(c2ccnnc2)C1` [Example 290, 1-(pyridazin-4-yl)-N-[4-({1-[4-(trifluoromethoxy)benzoyl]piperidin-4-yl}oxy)phenyl]azetidine-3-carboxamide] had a pIC50 of 7.09. Take `O=C(Nc1ccc(OC2CCN(C(=O)Cc3cc(F)cc(F)c3)CC2)cc1)C1CN(c2ccnnc2)C1` [Example 291, N-[4-({1-[(3,5-difluorophenyl)acetyl]piperidin-4-yl}oxy)phenyl]-1-(pyridazin-4-yl)azetidine-3-carboxamide]: the negative-log IC50 (pIC50) is 7.13. On to `O=C(Nc1ccc(OC2CCN(C(=O)c3cccc(OC(F)(F)F)c3)CC2)cc1)C1CN(c2ccnnc2)C1` [Example 292, 1-(pyridazin-4-yl)-N-[4-({1-[3-(trifluoromethoxy)benzoyl]piperidin-4-yl}oxy)phenyl]azetidine-3-carboxamide], for which the pIC50 is 7.03. This pIC50 and that of the compound before are within 0.2 log units of each other. In the case of `O=C(Nc1ccc(OC2CCN(C(=O)CC3CC3)CC2)cc1)C1CN(c2ccnnc2)C1` [Example 293, N-(4-{[1-(cyclopropylacetyl)piperidin-4-yl]oxy}phenyl)-1-(pyridazin-4-yl)azetidine-3-carboxamide] it was 7.14.

Compound `CC(C)C(=O)N1CCC(Oc2ccc(NC(=O)C3CN(c4ccnnc4)C3)cc2)CC1` [Example 294, N-(4-{[1-(2-methylpropanoyl)piperidin-4-yl]oxy}phenyl)-1-(pyridazin-4-yl)azetidine-3-carboxamide] gave a negative-log IC50 (pIC50) of 7.08. This pIC50 and that of the compound before are within 0.2 log units of each other. As for `O=C(Nc1ccc(OC2CCN(C(=O)c3cccc(Cl)c3)CC2)cc1)C1CN(c2ccnnc2)C1` [Example 295, N-(4-{[1-(3-chlorobenzoyl)piperidin-4-yl]oxy}phenyl)-1-(pyridazin-4-yl)azetidine-3-carboxamide], the figure is 7.15; as for `O=C(Nc1ccc(OC2CCN(C(=O)c3ccccn3)CC2)cc1)C1CN(c2ccnnc2)C1` [Example 296, 1-(pyridazin-4-yl)-N-(4-{[1-(pyridin-2-ylcarbonyl)piperidin-4-yl]oxy}phenyl)azetidine-3-carboxamide], 7.16.

As for `O=C(Nc1ccc(OC2CCN(C(=O)c3ccc(Cl)cc3)CC2)cc1)C1CN(c2ccnnc2)C1` [Example 297, N-(4-{[1-(4-chlorobenzoyl)piperidin-4-yl]oxy}phenyl)-1-(pyridazin-4-yl)azetidine-3-carboxamide], the negative logarithm of the IC50 (pIC50) was 7.03. `O=C(Nc1ccc(OC2CCN(C(=O)C3CCOC3)CC2)cc1)C1CN(c2ccnnc2)C1` (stereo not shown) [Example 298, 1-(pyridazin-4-yl)-N-(4-{[1-(tetrahydrofuran-3-ylcarbonyl)piperidin-4-yl]oxy}phenyl)azetidine-3-carboxamide] showed a pIC50 of 7.01. As for `O=C(Nc1ccc(OC2CCN(C(=O)c3cc(F)cc(F)c3)CC2)cc1)C1CN(c2ccnnc2)C1` [Example 299, N-(4-{[1-(3,5-difluorobenzoyl)piperidin-4-yl]oxy}phenyl)-1-(pyridazin-4-yl)azetidine-3-carboxamide], the figure is 7.07; as for `CCC(C)(C)C(=O)N1CCC(Oc2ccc(NC(=O)C3CN(c4ccnnc4)C3)cc2)CC1` [Example 300, N-(4-{[1-(2,2-dimethylbutanoyl)piperidin-4-yl]oxy}phenyl)-1-(pyridazin-4-yl)azetidine-3-carboxamide], 7.59; as for `O=C(Nc1ccc(OC2CCN(C(=O)C3CC3)CC2)cc1)C1CN(c2ccnnc2)C1` [Example 301, N-(4-{[1-(cyclopropylcarbonyl)piperidin-4-yl]oxy}phenyl)-1-(pyridazin-4-yl)azetidine-3-carboxamide], 7.04.

Compound `O=C(Nc1ccc(OC2CCN(C(=O)C3CCCO3)CC2)cc1)C1CN(c2ccnnc2)C1` (stereo not shown) [Example 302, 1-(pyridazin-4-yl)-N-(4-{[1-(tetrahydrofuran-2-ylcarbonyl)piperidin-4-yl]oxy}phenyl)azetidine-3-carboxamide] showed a negative-log IC50 (pIC50) of 7.08. In the case of `O=C(Nc1ccc(OC2CCN(C(=O)c3cccs3)CC2)cc1)C1CN(c2ccnnc2)C1` [Example 303, 1-(pyridazin-4-yl)-N-(4-{[1-(thiophen-2-ylcarbonyl)piperidin-4-yl]oxy}phenyl)azetidine-3-carboxamide] it was 7.23; in that of `Cc1ccc(C(=O)N2CCC(Oc3ccc(NC(=O)C4CN(c5ccnnc5)C4)cc3)CC2)s1` [Example 304, N-[4-({1-[(5-methylthiophen-2-yl)carbonyl]piperidin-4-yl}oxy)phenyl]-1-(pyridazin-4-yl)azetidine-3-carboxamide], 7.48; in that of `O=C(Nc1ccc(OC2CCN(C(=O)Cc3cccc(C(F)(F)F)c3)CC2)cc1)C1CN(c2ccnnc2)C1` [Example 305, 1-(pyridazin-4-yl)-N-{4-[(1-{[3-(trifluoromethyl)phenyl]acetyl}piperidin-4-yl)oxy]phenyl}azetidine-3-carboxamide], 6.99. `O=C(Nc1ccc(OC2CCN(C(=O)C3CCOCC3)CC2)cc1)C1CN(c2ccnnc2)C1` [Example 306, 1-(pyridazin-4-yl)-N-(4-{[1-(tetrahydro-2H-pyran-4-ylcarbonyl)piperidin-4-yl]oxy}phenyl)azetidine-3-carboxamide] gave a pIC50 of 7.46. `CC[C@H](C)C(=O)N1CCC(Oc2ccc(NC(=O)C3CN(c4ccnnc4)C3)cc2)CC1` [Example 307, N-[4-({1-[(2S)-2-methylbutanoyl]piperidin-4-yl}oxy)phenyl]-1-(pyridazin-4-yl)azetidine-3-carboxamide] gave a negative-log IC50 (pIC50) of 7.68.

`O=C(Nc1ccc(OC2CCN(C(=O)Cc3ccccc3F)CC2)cc1)C1CN(c2ccnnc2)C1` [Example 308, N-[4-({1-[(2-fluorophenyl)acetyl]piperidin-4-yl}oxy)phenyl]-1-(pyridazin-4-yl)azetidine-3-carboxamide]: the pIC50 is 7.21. This pIC50 is 0.47 log units lower than that of the compound before. As for `CC(C)Cn1cc(-c2ccc(C(=O)NC3CN(c4cccnn4)C3)o2)cn1` [Example 309, 5-[1-(2-methylpropyl)-1H-pyrazol-4-yl]-N-[1-(pyridazin-3-yl)azetidin-3-yl]furan-2-carboxamide], the figure is 5.09; as for `CC(C)C(=O)N1CCC(c2ccc(NC(=O)[C@H]3CCN(c4cccnn4)C3)cc2)CC1` [Example 310, (3S)—N-{4-[1-(2-methylpropanoyl)piperidin-4-yl]phenyl}-1-(pyridazin-3-yl)pyrrolidine-3-carboxamide], 7.79; as for `O=C(Nc1ccc(C2CCN(C(=O)c3ccccc3)CC2)cc1)[C@H]1CCN(c2cccnn2)C1` [Example 311, (3S)—N-[4-(1-benzoylpiperidin-4-yl)phenyl]-1-(pyridazin-3-yl)pyrrolidine-3-carboxamide], 8.54. As for `O=C(Nc1ccc(C2CCN(C(=O)CC3CCOCC3)CC2)cc1)[C@H]1CCN(c2cccnn2)C1` [Example 312, (3S)-1-(pyridazin-3-yl)-N-{4-[1-(tetrahydro-2H-pyran-4-ylacetyl)piperidin-4-yl]phenyl}pyrrolidine-3-carboxamide], the figure is 7.66; as for `CC(C)(C)C(=O)N1CCC(c2ccc(NC(=O)[C@H]3CCN(c4cccnn4)C3)cc2)CC1` [Example 313, (3S)—N-{4-[1-(2,2-dimethylpropanoyl)piperidin-4-yl]phenyl}-1-(pyridazin-3-yl)pyrrolidine-3-carboxamide], 8.22; as for `CC(C)(C)OC(=O)N1CCC(c2ccc(C(=O)NC3CN(c4cccnn4)C3)cc2)CC1` [Example 314, tert-butyl 4-(4-{[1-(pyridazin-3-yl)azetidin-3-yl]carbamoyl}phenyl)piperidine-1-carboxylate], 6.21. As for `CC(C)Cn1cc(-c2ccc(C(=O)NC3CN(c4cccnn4)C3)s2)cn1` [Example 315, 5-[1-(2-methylpropyl)-1H-pyrazol-4-yl]-N-[1-(pyridazin-3-yl)azetidin-3-yl]thiophene-2-carboxamide], the figure is 7.06; as for `CC(=O)N1CCC(c2ccc(NC(=O)C3CN(c4cccnn4)C3)cc2)CC1` [Example 316, N-[4-(1-acetylpiperidin-4-yl)phenyl]-1-(pyridazin-3-yl)azetidine-3-carboxamide], 8.51; as for `CCCC(=O)N1CCC(c2ccc(NC(=O)C3CN(c4cccnn4)C3)cc2)CC1` [Example 317, N-[4-(1-butanoylpiperidin-4-yl)phenyl]-1-(pyridazin-3-yl)azetidine-3-carboxamide], 8.74. `CCCCC(=O)N1CCC(c2ccc(NC(=O)C3CN(c4cccnn4)C3)cc2)CC1` [Example 318, N-[4-(1-pentanoylpiperidin-4-yl)phenyl]-1-(pyridazin-3-yl)azetidine-3-carboxamide] gave a pIC50 of 8.57.
